Converted amounts (≈) assume the structure as drawn. “And” between values parts separate entries of the source, which are not always exact repeats. Equal entries are not always repeated.
The molecules below were run on Helicobacter pylori (assay: (§1) Minimum bactericidal concentration against Helicobacter pylori ATCC 43504).
Type: functional
`Cc1c(OCC(C)C)ccnc1CNc1nc2ccccc2[nH]1` was tested, and the MBC was 8 µg/mL. With `Cc1c(OCC(C)C)ccnc1CNc1nc2ccccc2s1` the MBC was 32 µg/mL and 98 µM. For `Cc1c(OCC(C)C)ccnc1COc1nc2ccccc2o1`, the MBC was 16 µg/mL and 51 µM. In the case of `Cc1c(CSc2nc3ccccc3[nH]2)cccc1OCC(C)C`, the MBC is reported as 8 µg/mL and 19 µM. `Cc1c(OCC(C)C)ccnc1CCc1nc2ccccc2[nH]1` was tested, and the MBC was 32 µg/mL and 103 µM. In the case of `COCCOCCOCCOCCOCCSc1cccc(CSc2nc3ccccc3[nH]2)c1C`, the MBC is reported as 0.5 µg/mL and 0.96 µM. In the case of `Cc1c(CCc2cc3ccccc3[nH]2)cccc1OCC(C)C`, the MBC is reported as 16 µg/mL and 52 µM. In the case of `COCCOCCOCCOCCOCCSc1cccc(CSc2nc3cc(CO)ccc3[nH]2)c1C`, the MBC is reported as 8 µg/mL and 15 µM. In the case of `CCOC(=O)c1ccc2[nH]c(SCc3cccc(SCCOCCOCCOCCOCCOC)c3C)nc2c1`, the MBC is reported as 2 µg/mL and 3.37 µM. `Cc1c(CNc2nc3ccccc3[nH]2)cccc1OCC(C)C` was tested, and the MBC was 2 µg/mL and 6.5 µM. For `Cc1c(CCc2nc3ccccc3[nH]2)cccc1OCC(C)C`, the MBC was 8 µg/mL and 26 µM. For `Cc1c(OCC(C)C)ccnc1CSc1cc2ccccc2[nH]1`, the MBC was 4 µg/mL and 12 µM. With `Cc1c(CNc2nc3ccccc3o2)cccc1OCC(C)C` the MBC was > 128 µg/mL and > 412 µM. Work on `COCCOCCOCCSc1cccc(CNc2nc3ccccc3[nH]2)c1C` yielded an MBC of 77 µM. With `Cc1c(CNc2nc3ccccc3s2)cccc1OCC(C)C` the MBC was > 128 µg/mL and > 392 µM. `CC[C@H]1OC(=O)[C@H](C)[C@@H](O[C@H]2C[C@@](C)(OC)[C@@H](O)[C@H](C)O2)[C@H](C)[C@@H](O[C@@H]2O[C@H](C)C[C@H](N(C)C)[C@H]2O)[C@](C)(OC)C[C@@H](C)C(=O)[C@H](C)[C@@H](O)[C@]1(C)O` [CLARITHROMYCIN] showed an MBC of 0.1 µg/mL. `COCCOCCOCCOc1cccc(CSc2nc3ccccc3[nH]2)c1C` was tested, and the MBC was 4 µg/mL and 9.6 µM. In the case of `Cc1c(CCc2nc3ccccc3o2)cccc1OCC(C)C`, the MBC is reported as 16 µg/mL and 52 µM. `Cc1c(CSc2nc3ccccc3[nH]2)cccc1SCC(C)C` was tested, and the MBC was 4 µg/mL and 8.76 µM. In the case of `Cc1c(CCc2nc3ccccc3s2)cccc1OCC(C)C`, the MBC is reported as 32 µg/mL and 98 µM. With `Cc1c(OCC(C)C)ccnc1CCc1cc2ccccc2o1` the MBC was 16 µg/mL and 52 µM. With `Cc1c(CSc2nc3ccccc3[nH]2)cccc1SCCn1cncn1` the MBC was 4 µg/mL and 10.5 µM. With `Cc1c(OCC(C)C)ccnc1CCc1nc2ccccc2s1` the MBC was 16 µg/mL and 49 µM. With `Cc1c(COc2nc3ccccc3s2)cccc1OCC(C)C` the MBC was 128 µg/mL and 391 µM. In the case of `Cc1c(OCC(C)C)ccnc1COc1nc2ccccc2s1`, the MBC is reported as 16 µg/mL and 49 µM. `COCCOCCOCCSc1cccc(CNc2nc3ccccc3s2)c1C` was tested, and the MBC was 4 µg/mL and 9.25 µM. `Cc1c(CSc2nc3ccccc3o2)cccc1OCC(C)C` was tested, and the MBC was 64 µg/mL and 195 µM. `CCC(=O)c1ccc2[nH]c(SCc3cccc(SCCOCCOCCOCCOCCOC)c3C)nc2c1` was tested, and the MBC was 2 µg/mL and 3.47 µM. `Cc1c(OCC(C)C)ccnc1CNc1nc2ccccc2o1` was tested, and the MBC was 32 µg/mL and 103 µM. In the case of `CC1(C)S[C@@H]2[C@H](NC(=O)[C@H](N)c3ccc(O)cc3)C(=O)N2[C@H]1C(=O)O` [AMOXICILLIN], the MBC is reported as 0.05 µg/mL. `Cc1c(OCC(C)C)ccnc1CCc1nc2ccccc2o1` was tested, and the MBC was 32 µg/mL and 103 µM. In the case of `Cc1c(OCC(C)C)ccnc1CSc1nc2ccccc2[nH]1`, the MBC is reported as 1 µg/mL and 3 µM. For `Cc1c(CSc2nc3ccccc3s2)cccc1OCC(C)C`, the MBC was > 128 µg/mL and > 373 µM. With `Cc1c(OCC(C)C)ccnc1CSc1nc2ccccc2o1` the MBC was 32 µg/mL and 81 µM. With `COCCOCCOCCSc1cccc(CSc2nc3ccccc3[nH]2)c1C` the MBC was 0.5 µg/mL and 1.16 µM. In the case of `COCCOCCOCCOCCOCCSc1cccc(CSc2nc3cc(N)ccc3[nH]2)c1C`, the MBC is reported as 8 µg/mL and 15 µM. For `Cc1c(CCc2cc3ccccc3o2)cccc1OCC(C)C`, the MBC was 128 µg/mL and 415 µM. With `Cc1c(OCC(C)C)ccnc1CSc1nc2ccccc2s1` the MBC was 32 µg/mL and 93 µM. `Cc1c(CSc2nc3ccccc3[nH]2)cccc1SCCN1CCOCC1` was tested, and the MBC was 1 µg/mL and 2.5 µM. In the case of `COCCOCCOCCOCCOCCOc1cccc(CSc2nc3ccccc3[nH]2)c1C`, the MBC is reported as 2 µg/mL and 3.96 µM. For `Cc1c(CSc2nc3ccccc3[nH]2)cccc1SCCn1c([N+](=O)[O-])cnc1C`, the MBC was 2 µg/mL and 4.55 µM. In the case of `Cc1c(CSc2nc3ccccc3[nH]2)cccc1OCCN1CCOCC1`, the MBC is reported as 16 µg/mL and 42 µM. In the case of `Cc1c(CNc2nc3ccccc3[nH]2)cccc1SCCN1CCOCC1`, the MBC is reported as 32 µg/mL and 107 µM. For `Cc1c(CSc2cc3ccccc3[nH]2)cccc1OCC(C)C`, the MBC was 32 µg/mL and 98 µM. For `Cc1c(COc2nc3ccccc3o2)cccc1OCC(C)C`, the MBC was 32 µg/mL and 103 µM.

Each molecule was assayed on Helicobacter pylori (assay: as §1).
Type: functional
For `Cc1c(OCC(C)C)ccnc1CNc1nc2ccccc2[nH]1`, the MBC was 26 µM (≈ 8.07 µg/mL).

Each molecule was assayed on Staphylococcus aureus (assay: Minimum bactericidal concentration against Staphylococcus aureus CCUG 1800T).
Type: functional
`Cc1c(OCC(C)C)ccnc1CNc1nc2ccccc2[nH]1` showed an MBC of 64 µg/mL (≈ 206 µM).

Each molecule was assayed on Escherichia coli (assay: Minimum bactericidal concentration against Escherichia coli K-12).
Type: functional
Work on `Cc1c(OCC(C)C)ccnc1CNc1nc2ccccc2[nH]1` yielded an MBC of 206 µM (≈ 63.9 µg/mL).

Test system: Helicobacter pylori
Assay: as §1
Type: functional
Remark: another data set of the same source
`COCCOCCOCCSc1cccc(CNc2nc3ccccc3[nH]2)c1C` was tested, and the MBC was 32 µg/mL (≈ 77 µM).

Each molecule was assayed on Helicobacter pylori (assay: Minimum bactericidal concentration against Helicobacter pylori ATCC 43504; range 2-4 ug/mL).
Type: functional
Molecule `Cc1ncc([N+](=O)[O-])n1CCO` [METRONIDAZOLE] has an MBC of 2 µg/mL (≈ 11.7 µM).
